Measured values: US20240262848A1, “HETEROCYCLIC COMPOUNDS, COMPOSITIONS THEREOF, AND METHODS OF TREATMENT THEREWITH” (BeiGene, Ltd., priority 2022, published 2024)

Tests used:
[1] = target: GST-tagged GDP-loaded KRAS G12D (amin acids 1-188) (Homo sapiens, UniProt P01116, G12D); assay: KRAS G12D probe displacement assay (TR-FRET); format: binding; conditions: Table 5; KRAS G12D 0.5 nM, biotinylated probe 2 4 nM
Description: Plates are incubated at 24° C. for 1 hr.

[2] = system: pERK1/2(THR202/TYR204) level in SW620 cell line; assay: KRAS G12V pERK assay in SW620 cells (HTRF); format: cell-based; conditions: Homo sapiens, SW-620, Table 4, 2 hrs compound treatment
Description: SW620 cell line was used in this study. Cells were maintained in RPMI 1640 supplemented with 10% fetal bovine serum (Thermo Fisher), 50 units/mL penicillin and streptomycin (Thermo Fisher) and kept at 37° C. in a humidified atmosphere of 5% CO2 in air. Cells were reinstated from frozen stocks that were laid down within 30 passages from the original cells purchased. 40000 cells per well were seeded into a 96-well plate and incubated overnight. Cells were treated with a 10-point dilution series. The final compound concentration is from 0 to 10 μM. After 2 hrs compound treatment, cells were lysed, and the pERK1/2(THR202/TYR204) level in the cell lysates was detected by HTRF kit (Cisbio). In brief, a total of 16 μL of cell lysate from each well of a 96-well plate was transferred to a 384-well white assay plate. Lysate from each well was incubated with 2 μL of Eu3+-cryptate (donor) labeled anti-phospho-ERK1/2 and 2 μL of D)2 (acceptor) labeled anti-phospho-ERK1/2 antibodies (Cisbio) overnight in dark at room temperature. When donor and acceptor are in close proximity, excitation of the donor with laser triggers a Fluorescence Resonance Energy Transfer (FRET) towards the acceptor, which in turn fluoresces at 655 nm wavelength. FRET signals were measured using a PHERAstar FSX reader (BMG Labtech). IC50 determination was performed by fitting the curve of percent inhibition versus the log of the inhibitor concentration using Dotmatics.

[3] = target: GST-tagged GDP-loaded KRAS G12V (amino acids 1-169) (Homo sapiens, UniProt P01116, G12V); assay: KRAS G12V probe displacement assay (TR-FRET); format: binding; conditions: Table 4; KRAS G12V 2 nM, biotinylated probe 2 2.5 nM
Description: Plates are incubated at 24 °C for 1 hr. […] After 1 hr incubation at 24° C.

GST-tagged GDP-loaded KRAS G12V (amino acids 1-169), sequence (P01116 1-169 isoform P01116-2 G12V): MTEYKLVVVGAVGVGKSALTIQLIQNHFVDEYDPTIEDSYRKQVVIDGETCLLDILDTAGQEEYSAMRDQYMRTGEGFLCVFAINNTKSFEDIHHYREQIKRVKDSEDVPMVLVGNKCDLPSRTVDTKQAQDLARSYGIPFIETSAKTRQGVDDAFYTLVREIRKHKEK
GST-tagged GDP-loaded KRAS G12D (amin acids 1-188), sequence (P01116 1-188 isoform P01116-2 G12D): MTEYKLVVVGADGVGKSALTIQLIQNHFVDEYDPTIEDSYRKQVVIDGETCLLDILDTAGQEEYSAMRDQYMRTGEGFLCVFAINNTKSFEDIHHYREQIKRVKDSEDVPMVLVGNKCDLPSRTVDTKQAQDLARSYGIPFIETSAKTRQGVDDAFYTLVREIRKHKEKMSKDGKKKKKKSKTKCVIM

Row | SMILES | IC50 [1] [nM] | IC50 [2] [nM] | IC50 [3] [nM]
1 | Nc1cc(Cl)c(C(F)(F)F)c(-c2nc3c4c(nc(OC[C@@]56CCCN5C[C@H](F)C6)nc4c2F)N([C@@H]2CCNC2)CCCO3)c1 [Example 41, 3-chloro-5-(4-fluoro-2-(((2R,7aS)-2-fluorotetrahydro-1H-pyrrolizin-7a(5H)-yl)methoxy)-11-((R)-pyrrolidin-3-yl)-8,9,10,11-tetrahydro-7-oxa-1,3,6,11-tetraazacycloocta[de]naphthalen-5-yl)-4-(trifluoromethyl)aniline] | 34 | – | –
2 | CNCCN1CCCOc2nc(-c3cc(N)cc(Cl)c3C(F)(F)F)c(F)c3nc(OC[C@@]45CCCN4C[C@H](F)C5)nc1c23 [Example 17, 3-chloro-5-(4-fluoro-2-(((2R,7aS)-2-fluorotetrahydro-1H-pyrrolizin-7a(5H)-yl)methoxy)-11-(2-(methylamino)ethyl)-8,9,10,11-tetrahydro-7-oxa-1,3,6,11-tetraazacycloocta[de]naphthalen-5-yl)-4-(trifluoromethyl)aniline] | 9.6 | – | –
3 | CN1CCOC(C)(COc2nc3c4c(nc(-c5cc(N)cc(Cl)c5C(F)(F)F)c(F)c4n2)O[C@H]2COCC[C@@H]2N3C)C1 (stereo partly drawn) [Example 63, 3-chloro-5-((7aR,11aS)-2-((2,4-dimethylmorpholin-2-yl)methoxy)-4-fluoro-12-methyl-7a, 8,10,11,11a, 12-hexahydro-7,9-dioxa-1,3,6,12-tetraazapleiaden-5-yl)-4-(trifluoromethyl)aniline] | – | 25 | 1.1
4 | CN1c2nc(OC[C@@]34CCCN3C[C@H](F)C4)nc3c(F)c(-c4cc(N)cc(Cl)c4C(F)(F)F)nc(c23)O[C@H]2CCOC[C@@H]21 [Example 50, 3-chloro-5-((7aS,11aS)-4-fluoro-2-(((2R,7aS)-2-fluorotetrahydro-1H-pyrrolizin-7a(5H)-yl)methoxy)-12-methyl-7a, 8,11a, 12-tetrahydro-9H, 11H-7,10-dioxa-1,3,6,12-tetraazapleiaden-5-yl)-4-(trifluoromethyl)aniline] | – | 28 | 0.61
5 | CN1c2nc(OC[C@@]34CCCN3C[C@H](F)C4)nc3c(F)c(-c4cc(N)cc(Cl)c4C(F)(F)F)nc(c23)OCC12CC2 [Example 29, 3-chloro-5-(4-fluoro-2-(((2R,7aS)-2-fluorotetrahydro-1H-pyrrolizin-7a(5H)-yl)methoxy)-10-methyl-8H, 10H-7-oxa-1,3,6,10-tetraazaspiro[cyclohepta[de]naphthalene-9,1′-cyclopropan]-1(10a), 2,3a, 3 al(6a), 5-pentaen-5-yl)-4-(trifluoromethyl)aniline] | – | 56 | 0.95
6 | CN1CC2(COC2)COc2nc(-c3cc(N)cc(Cl)c3C(F)(F)F)c(F)c3nc(OC[C@@]45CCCN4C[C@H](F)C5)nc1c23 [Example 11, 3-chloro-5-(4-fluoro-2-(((2R,7aS)-2-fluorotetrahydro-1H-pyrrolizin-7a(5H)-yl)methoxy)-11-methyl-10,11-dihydro-8H-7-oxa-1,3,6,11-tetraazaspiro[cycloocta[de]naphthalene-9,3′-oxetan]-1(11a), 2,3a, 3 al(6a), 5-pentaen-5-yl)-4-(trifluoromethyl)aniline] | – | 624 | 16
7 | CN1c2nc(OCC3(C)CCC4COCCN4C3)nc3c(F)c(-c4cc(N)cc(Cl)c4C(F)(F)F)nc(c23)O[C@H]2COCC[C@@H]21 (stereo partly drawn) [Example 60, 3-chloro-5-((7aR,11aS)-4-fluoro-12-methyl-2-((7-methyloctahydropyrido[2,1-c][1,4]oxazin-7-yl)methoxy)-7a, 8,10,11,11a, 12-hexahydro-7,9-dioxa-1,3,6,12-tetraazapleiaden-5-yl)-4-(trifluoromethyl)aniline] | – | 20 | 0.63
8 | CC1COc2nc(-c3cc(N)cc(Cl)c3C(F)(F)F)c(F)c3nc(OC[C@@]45CCCN4C[C@H](F)C5)nc(c23)N(C)C1 (stereo partly drawn) [Example 15, 3-chloro-5-(4-fluoro-2-(((2R,7aS)-2-fluorotetrahydro-1H-pyrrolizin-7a(5H)-yl)methoxy)-9,11-dimethyl-8,9,10,11-tetrahydro-7-oxa-1,3,6,11 tetraazacycloocta[de]naphthalen-5-yl)-4-(trifluoromethyl)aniline] | – | 371 | 8.6
9 | CC1CCOc2nc(-c3cc(N)cc(Cl)c3C(F)(F)F)c(F)c3nc(OC[C@@]45CCCN4C[C@H](F)C5)nc(c23)N1C (stereo partly drawn) [Example 6, 3-chloro-5-(4-fluoro-2-(((2R,7aS)-2-fluorotetrahydro-1H-pyrrolizin-7a(5H)-yl)methoxy)-10,11-dimethyl-8,9,10,11-tetrahydro-7-oxa-1,3,6,11-tetraazacycloocta[de]naphthalen-5-yl)-4-(trifluoromethyl)aniline] | – | 63 | 1.8
10 | CC1CCN(C)c2nc(OC[C@@]34CCCN3C[C@H](F)C4)nc3c(F)c(-c4cc(N)cc(Cl)c4C(F)(F)F)nc(c23)O1 (stereo partly drawn) [Example 14, 3-chloro-5-(4-fluoro-2-(((2R,7aS)-2-fluorotetrahydro-1H-pyrrolizin-7a(5H)-yl)methoxy)-8,11-dimethyl-8,9,10,11-tetrahydro-7-oxa-1,3,6,11-tetraazacycloocta[de]naphthalen-5-yl)-4-(trifluoromethyl)aniline] | – | 414 | 13
11 | CCN1c2nc(OC[C@@]34CCCN3C[C@H](F)C4)nc3c(F)c(-c4cc(N)cc(C)c4C(F)(F)F)nc(c23)OCCC12CC2 [Example 54, 3-(11-ethyl-4-fluoro-2-(((2R,7aS)-2-fluorotetrahydro-1H-pyrrolizin-7a(5H)-yl)methoxy)-8,9-dihydro-11H-7-oxa-1,3,6,11-tetraazaspiro[cycloocta[de]naphthalene-10,1′-cyclopropan]-1(11a), 2,3a, 3a^1(6a), 5-pentaen-5-yl)-5-methyl-4-(trifluoromethyl)aniline] | – | 51 | 1.7
12 | CN1c2nc(OC[C@@]34CCCN3C[C@H](F)C4)nc3c(F)c(-c4cc(N)cc(Cl)c4C(F)(F)F)nc(c23)OC[C@H]2COC[C@@H]21 (single isomer, unassigned) [Example 68 Isomer 1] | – | 51 | 1.8
13 | CN1c2nc(OC[C@@]34CCCN3C[C@H](F)C4)nc3c(F)c(-c4ccc(F)c5sc(N)c(C#N)c45)c(Cl)c(c23)OCC12COC2 [Example 18, 2-amino-4-(8′-chloro-10′-fluoro-2′-(((2R,7aS)-2-fluorotetrahydro-1H-pyrrolizin-7a(5H)-yl)methoxy)-4′-methyl-4′H, 6′H-spiro[oxetane-3,5′-[1,4]oxazepino[5,6,7-de]quinazolin]-9′-yl)-7-fluorobenzo[b]thiophene-3-carbonitrile] | – | 55 | 0.84
